Test results from PMC6470795 (Molecules, 2019).
Where two headings read alike, the source gives them in different places.

What was measured:
[1] = tested on: hepatic carcinoma 97H cells; test: MTT antiproliferative assay, 97H cells; assay type: cell-based, human; settings: 97H cells, MTT, 48 h, read-out: IC50 of Against 97H cells
From the text: The cell lines, 97H (human liver cancer cell), Pc9 (human non-small cell lung cancer), HELA (human epithelial cervical cancer cell line), SJSA1 (human osteosarcoma cells), LO2 (human normal liver cells), and HLF (human embryonic lung fibroblast), used in this study were purchased from the Guangzhou ginny ou Biotechnology Co. Ltd. (Guangzhou, China). Cell lines were cultivated in Dulbecco’s Modified Eagle Medium (DMEM) containing 10% (v/v) heat-inactivated fetal bovine serum (FBS), 100 units/mL penicillin, and 100 μg/mL streptomycin.
For the cytotoxicity assay, the cells grown in the logarithmic phase were seeded into 96-well plates (5 × 10^3 cells/well) for 24 h, and then exposed to different concentrations of the test compounds for 48 h. After the attached cells had been incubated with 5 mg/mL MTT (Sigma, St. Louis, MO, USA) for another 4 h, the suspension was discarded and subsequently the dark blue crystals (formazan) were solubilized in dimethyl sulfoxide (DMSO). Then, the absorbance was measured at 570 nm using a multifunction microplate reader (Molecular Devices, Flex Station 3) (Thermo Fisher Scientific, San Jose, CA, USA), and each experiment was performed at least in triplicate.

With C[C@H](c1cccc(-c2ncc(OCC3CCN(C)CC3)cn2)c1)n1cc(-c2cccc(C#N)c2)cnc1=O [(R)-31e] as the compound, how does the IC50 ([1]; Homo sapiens) read?
The IC50 was 18 ± 6 nM.

For C[C@@H](c1cccc(-c2ncc(OCC3CCN(C)CC3)cn2)c1)n1cc(-c2cccc(C#N)c2)cnc1=O [(S)-31e], which IC50 ([1]; Homo sapiens) is on record?
The IC50 was 1830 ± 26 nM.

For CN(C)CCCSc1cnc(-c2cccc(Cn3cc(-c4cccc(C#N)c4)ncc3=O)c2)nc1 [Compound 11a, 5-(3-cyanophenyl)-1-(3-(5-((3-(dimethylamino)propyl)thio)pyrimidin-2-yl)benzyl)pyrazin-2(1H)-one], which melting point is on record?
Its melting point is 106.3 to 107.9 °C.

And the IC50 [1]?
Its IC50 is 9810 ± 790 nM.

And the IC50 ([1]; Homo sapiens)?
Its IC50 is 9800 nM.

Which results are given for CN(C)CCCSc1cnc(-c2cccc(Cn3cc(-c4cc(F)cc(F)c4)ncc3=O)c2)nc1 [Compound 11b, 5-(3,5-difluorophenyl)-1-(3-(5-((3-(dimethylamino)propyl)thio)pyrimidin-2-yl)benzyl)pyrazin-2(1H)-one]?
melting point: 143.7 to 145.2 °C; IC50 ([1]; Homo sapiens): 9100 ± 670 nM

Which IC50 [1] does the source give for CN(C)CCCSc1cnc(-c2cccc(Cn3cc(-c4cccc(C#N)c4)cnc3=O)c2)nc1 [Compound 18, 5-(3-cyanophenyl)-1-(3-(5-((3-(dimethylamino)propyl)thio)pyrimidin-2-yl)benzyl)pyrimidin-2(1H)-one] here?
The IC50 was 443 ± 4 nM.

And the IC50 ([1]; Homo sapiens)?
Its IC50 is 360 to 550 nM.

Which IC50 ([1]; Homo sapiens) does the source give for CN(C)CCCOc1cnc(-c2cccc(Cn3cc(-c4cccc(C#N)c4)cnc3=O)c2)nc1 [Compound 22, 5-(3-cyanophenyl)-1-(3-(5-(3-(dimethylamino)propoxy)pyrimidin-2-yl)benzyl)pyrimidin-2(1H)-one] here?
Its IC50 is 559 ± 18 nM.

Which melting point does the source give for CN1CCC(COc2cnc(-c3cccc(Cn4cc(-c5cccc(C#N)c5)cnc4=O)c3)nc2)CC1 [Compound 25, 5-(3-cyanophenyl)-1-(3-(5-((1-methylpiperidin-4-yl)methoxy)pyrimidin-2-yl)benzyl)pyrimidin-2(1H)-one] here?
The melting point was 116.7 to 118.2 °C.

What about the IC50 [1] of the same compound?
The IC50 was 361 ± 12 nM.

And the IC50 ([1]; Homo sapiens)?
Its IC50 is 360 to 550 nM.

Which IC50 ([1]; Homo sapiens) does the source give for CC(c1cccc(-c2ncc(SCCN(C)C)cn2)c1)n1cc(-c2cccc(C#N)c2)cnc1=O (stereo not shown) [Compound 31a, 5-(3-cyanophenyl)-1-(1-(3-(5-((2-(dimethylamino)ethyl)thio)pyrimidin-2-yl)phenyl)ethyl)pyrimidin-2(1H)-one] here?
Its IC50 is 186 ± 7 nM.

For CC(c1cccc(-c2ncc(SCCCN(C)C)cn2)c1)n1cc(-c2cccc(C#N)c2)cnc1=O (stereo not shown) [Compound 31b, 5-(3-cyanophenyl)-1-(1-(3-(5-((3-(dimethylamino)propyl)thio)pyrimidin-2-yl)phenyl)ethyl)pyrimidin-2(1H)-one], which IC50 ([1]; Homo sapiens) is on record?
The IC50 was 149 ± 12 nM.

Which results are given for CC(c1cccc(-c2ncc(OCCCN(C)C)cn2)c1)n1cc(-c2cccc(C#N)c2)cnc1=O (stereo not shown) [Compound 31c, 5-(3-cyanophenyl)-1-(1-(3-(5-(3-(dimethylamino)propoxy)pyrimidin-2-yl)phenyl)ethyl)pyrimidin-2(1H)-one]?
melting point: 68.3 to 69.9 °C; IC50 ([1]; Homo sapiens): 216 ± 87 nM

For CC(c1cccc(-c2ncc(OCCN(C)C)cn2)c1)n1cc(-c2cccc(C#N)c2)cnc1=O (stereo not shown) [Compound 31d, 5-(3-cyanophenyl)-1-(1-(3-(5-(2-(dimethylamino)ethoxy)pyrimidin-2-yl)phenyl)ethyl)pyrimidin-2(1H)-one], which melting point is on record?
Its melting point is 53.3 to 55 °C.

And the IC50 ([1]; Homo sapiens)?
The IC50 was 196 ± 56 nM.

Which IC50 ([1]; Homo sapiens) does the source give for CC(c1cccc(-c2ncc(OCCN3CCOCC3)cn2)c1)n1cc(-c2cccc(C#N)c2)cnc1=O (stereo not shown) [Compound 31f, 5-(3-cyanophenyl)-1-(1-(3-(5-(2-morpholinoethoxy)pyrimidin-2-yl)phenyl)ethyl)pyrimidin-2(1H)-one] here?
The IC50 was 248 ± 34 nM.

With CN(C)CCCSc1cnc(-c2cccc(Cn3cc(-c4cncnc4)cc(F)c3=O)c2)nc1 [Compound 36c, 1-(3-(5-((3-(dimethylamino)propyl)thio)pyrimidin-2-yl)benzyl)-3-fluoro-5-(pyrimidin-5-yl)pyridin-2(1H)-one] as the compound, how does the IC50 ([1]; Homo sapiens) read?
The IC50 was 671 ± 56 nM.

With CC(c1cccc(-c2ncc(SCCCN(C)C)cn2)c1)n1cc(-c2cccc(C#N)c2)cc(F)c1=O (stereo not shown) [Compound 39, 5-(3-cyanophenyl)-1-(1-(3-(5-((3-(dimethylamino)propyl)thio)pyrimidin-2-yl)phenyl)ethyl)-3-fluoropyridin-2(1H)-one] as the compound, how does the IC50 ([1]; Homo sapiens) read?
The IC50 was 206 ± 13 nM.
